The values that follow come from patent US5677439A, “Oligonucleotide analogues containing phosphate diester linkage substitutes, compositions thereof, and precursor dinucleotide analogues” (Sanofi, priority 1995, dated 1997).

Series [1] concerns fetal calf serum-associated exonuclease. As to the kind of experiment: Nuclease resistance: 2 h incubation in cell culture medium with 10% fetal calf serum, HPLC of parent compound. The class given is in vitro ADME. The note with it: for % DEGRADATION MAJOR PEAK: 2 hours at 37° C., 6 or 7 μM, RPMI 1640 medium with 10% heat inactivated FCS; for % of oligomer remained after incubation: 2 hrs incubation with fetal calf serum-associated exonuclease; for AREA-MAJOR PEAK/2.0 HR: HPLC peak area of parent compound after 2.0 hr at 37° C. in RPMI 1640 with 10% FCS; for AREA-MAJOR PEAK/0.0 MIN: HPLC peak area of parent compound, 260 nm; for degradation / resistance to hydrolysis by FCS-associated exonucleases (in words): 2 hrs incubation, 10% FCS. The procedure:
The oligonucleotides of Table 4 were dissolved in water. DNA concentrations were then determined by measuring the absorbance of samples at 260 nm (on a Perkin Elmer Lambda 4C Spectrophotometer at ambient room temperature) and using calculated extinction coefficients [method of Cantor and Warsaw, CRC Handbook of Biochemistry and Molecular Biology, 3rd. ed.
The FCS was heat inactivated at 56° C. for 0.5 hour prior to use. Samples were then placed on ice and deproteinized using five extractions with 24:1 chloroform:isoamyl alcohol. Samples were either stored frozen at -20° C. or immediately loaded onto a refrigerated (4° C.) WISP (Waters) HPLC autoinjector.
Oligonucleotide hydrolysis was guantitated by determining the amount of disappearance of the parent compound. Oligonucleotides (from the reaction mixture) were separated on an LKB Ultrachrome GTi dual pump chromatography system equipped with a fixed wavelength detector (260 nm), and recording integrator, using a GenPak FAX (Waters) anion exchange column eguilibrated in Buffer A (1 mM EDTA; 15 mM sodium phosphate, pH 8.5). Column temperature was maintained at 60° C. using a Waters column oven. Fifty microliter sample injection volumes were used. The oligonucleotides were eluted using a linear gradient of 0% to 100% Buffer B (Buffer A containing 0.5M NaCl) over 60 minutes. Buffer flow rate was 1 mL/min.

The test system of series [2] is PHA stimulated human PBL. As to the kind of experiment: Progression of PHA stimulated PBL into the S-phase of the cell cycle (flow cytometry). In kind it is cell-based. The following applies: PHA stimulation 48 hours, versus nontreated control. The procedure:
Human PBL's were stimulated with PHA for 48 hours in the presence or absence of the antisense oligonucleotide sequences of Table 6. The percent of the population of cells in each treatment group in the S-phase of the cell cycle as compared to the nontreated control was determined using standard flow cytometric techniques.
(In general: In flow cytometry, cells or beads pass a laser one at a time.)

Series [3] relates to c-myc protein in MOLT-4 human T-cell leukemia cells. Briefly: C-MYC protein expression in MOLT-4 cells (35S-methionine, radioimmunoprecipitation). The following applies: 60 μM, 8 hours incubation. The class given is cell-based. How it is done:
Asynchronous exponentially growing Molt-4 cells were incubated for 8 hours in the presence or absence of 60 μM c-myc directed antisense DNA. The cells were then incubated for 45 minutes in the presence of ^35 S-methionine and the content of c-myc protein guantitated using radioimmunoprecipitation with a c-myc antibody.

“Also recorded” adds a separate entry of the source.

“5' X CCT CGA CCA CCG CAT X (A) 3' (antisense CCTCGACCACCGCAT; triethylene glycol unit at both ends, extra 3' A, further chemistry not given here) [Ref. Code 9, TEG-terminated anti-RAS oncogene DNA, X is TEG]”: in series [1], the “% DEGRADATION MAJOR PEAK” value is reported as 13.0%, the “% of oligomer remained after incubation” value amounted to 87.0%, the “AREA-MAJOR PEAK/2.0 HR” value was 0.3258 and the “AREA-MAJOR PEAK/0.0 MIN” value amounted to 0.3744.

Take “5' XX CCT CGA CCA CCG CAT XX (A) 3' (antisense CCTCGACCACCGCAT; two TEG at each end, 3' A, chemistry not fully specified) [Ref. Code 10, TEG-terminated anti-RAS oncogene DNA, X is TEG]”: in series [1], the “% DEGRADATION MAJOR PEAK” value is reported as 0.0%, the “degradation / resistance to hydrolysis by FCS-associated exonucleases (in words)” value is listed as “no degradation; also recorded: completely resistant to hydrolysis”, the “AREA-MAJOR PEAK/2.0 HR” value worked out at 0.3697 and the “AREA-MAJOR PEAK/0.0 MIN” value turned out to be 0.3642.

As to “5' CCT CGA CCA CCG CAT 3' (DNA CCTCGACCACCGCAT; DNA, backbone and methylation of C not given here) [Ref. Code 11, unmodified oligodeoxynucleotide made by standard solid phase phosphoramidite procedures, comparison, reference compound]”, in series [1], the “% DEGRADATION MAJOR PEAK” value is recorded as 75.3%, the “% of oligomer remained after incubation” value came to 24.7%, the “AREA-MAJOR PEAK/2.0 HR” value is reported as 0.3177 and the “AREA-MAJOR PEAK/0.0 MIN” value came to 1.2861.

For “5' X GGA GCT GGT GGC GTA X (A) 3' (antisense GGAGCTGGTGGCGTA; triethylene glycol unit at both ends, extra 3' A, further chemistry not given here) [Ref. Code 7, TEG-terminated anti-RAS oncogene DNA, X is TEG]”, in series [1], the “% DEGRADATION MAJOR PEAK” value came to 0.0%, the “degradation / resistance to hydrolysis by FCS-associated exonucleases (in words)” value is on record as “no degradation; also recorded: completely resistant to hydrolysis”, the “AREA-MAJOR PEAK/2.0 HR” value is 0.3663 and the “AREA-MAJOR PEAK/0.0 MIN” value turned out to be 0.2325.

Consider “5' XX GGA GCT GGT GGC GTA XX (A) 3' (antisense GGAGCTGGTGGCGTA; two triethylene glycol units at each end, extra 3' A, further chemistry not given here) [Ref. Code 8, TEG-terminated anti-RAS oncogene DNA, X is TEG]”, for which, in series [1], the “% DEGRADATION MAJOR PEAK” value was 17.9%, the “% of oligomer remained after incubation” value was determined as 82.1%, the “AREA-MAJOR PEAK/2.0 HR” value amounted to 0.1777 and the “AREA-MAJOR PEAK/0.0 MIN” value amounted to 0.2164.

Regarding “5' AAC GTT GAG GGG CAT 3' [reference compound]”, the entries for the “% CONTROL S-PHASE” value in series [2] (30 μM) and in series [2] (60 μM) were 75 ± 6% and 9 ± 10%, respectively. For the same substance, in series [3], the “% REDUCTION C-MYC PROTEIN” value is listed as 61.0 ± 2.6%.
